pIC50: −log10 of the molar value.
What was measured:
THP-1 = assay: Induction of pyroptosis in PMA-differentiated human THP-1 cells at 10 uM in presence of ATP by CytoTox 96 nonradioactive assay relative to control; format: functional
[1] = Cytotoxicity against human THP-1 cells assessed as reduction in cell viability measured after 72 hrs by MTT assay; format: toxicity, cell-based; settings: read-out: TC50
[2] = target: NACHT, LRR and PYD domains-containing protein 3 (Homo sapiens, UniProt Q96P20); assay: Inhibition of NLRP3 in human PBMC cells assessed as reduction in IL-1beta production; format: cell-based
NACHT, LRR and PYD domains-containing protein 3, sequence (Q96P20 whole entry, the tested form may be a part): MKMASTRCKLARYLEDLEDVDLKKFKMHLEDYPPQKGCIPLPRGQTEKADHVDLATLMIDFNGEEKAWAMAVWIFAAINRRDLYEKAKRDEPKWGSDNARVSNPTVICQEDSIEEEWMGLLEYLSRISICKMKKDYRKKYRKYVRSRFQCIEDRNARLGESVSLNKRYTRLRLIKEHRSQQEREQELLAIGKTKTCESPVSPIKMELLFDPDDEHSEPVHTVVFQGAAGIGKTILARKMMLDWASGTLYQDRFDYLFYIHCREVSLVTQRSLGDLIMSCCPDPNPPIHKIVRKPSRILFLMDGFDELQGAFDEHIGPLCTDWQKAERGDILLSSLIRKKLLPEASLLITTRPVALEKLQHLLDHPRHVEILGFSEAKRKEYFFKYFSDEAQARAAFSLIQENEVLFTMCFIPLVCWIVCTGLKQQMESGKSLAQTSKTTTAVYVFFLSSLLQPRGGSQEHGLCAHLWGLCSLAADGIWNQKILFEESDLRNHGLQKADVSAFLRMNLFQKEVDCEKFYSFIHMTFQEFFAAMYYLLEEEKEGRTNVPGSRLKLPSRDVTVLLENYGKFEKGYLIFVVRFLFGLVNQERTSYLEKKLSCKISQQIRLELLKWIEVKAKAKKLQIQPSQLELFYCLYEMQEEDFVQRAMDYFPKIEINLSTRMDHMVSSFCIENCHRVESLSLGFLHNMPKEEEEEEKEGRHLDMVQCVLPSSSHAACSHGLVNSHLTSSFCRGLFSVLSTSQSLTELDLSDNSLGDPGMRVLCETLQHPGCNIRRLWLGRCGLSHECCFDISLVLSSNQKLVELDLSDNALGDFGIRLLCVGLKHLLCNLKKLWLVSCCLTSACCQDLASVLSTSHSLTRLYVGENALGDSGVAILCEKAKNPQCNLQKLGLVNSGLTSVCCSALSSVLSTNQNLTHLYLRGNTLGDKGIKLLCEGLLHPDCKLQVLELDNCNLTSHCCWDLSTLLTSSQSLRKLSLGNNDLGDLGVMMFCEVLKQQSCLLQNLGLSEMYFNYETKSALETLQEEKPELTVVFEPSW

| pIC50 [2] | SMILES | Activity (THP-1) | CC50 at 72 h [1] |
| --- | --- | --- | --- |
| – | C=C(Cc1ccccc1Cl)C(=O)NCCc1ccc(S(N)(=O)=O)cc1 | 80.9% | > 100 µM |
| 5.29 | C=C1C(=O)[C@]23[C@H](O)[C@@H]1CC[C@H]2[C@@]12CO[C@@]3(O)[C@@H](O)[C@@H]1C(C)(C)CC[C@@H]2O | – | – |
